Measured values: PMC8151276, “An Integrated Approach toward NanoBRET Tracers for Analysis of GPCR Ligand Engagement” (Molecules, 2021)

Tests used:
Assay type in all cases: binding
HTR1E = target: T1, HTR1E (Homo sapiens, UniProt P28566); assay: NanoBRET screen HiBiT-HTR1E in HEK293
T1 construct: purchased Promega (in-house HiBiT-GPCR construct library, NanoBRET)
Protocol: (§1) Each tracer candidate was screened across the entire library of HiBiT-GPCR constructs using NanoBRET as the detection modality. As depicted in Figure 4A, the specificity of interactions was evaluated through decrease in BRET due to competitive displacement of a bound tracer by excess parental compound. Each tracer was analyzed for binding to each HiBiT-GPCR fusion in the absence and in the presence of competing parental compound. Briefly, HEK293 cells were transfected with HiBiT-GPCR constructs diluted into promoterless DNA to reduce expression and maximize translocation to the cell surface. Each tracer candidate was then screened at concentrations of 1 μM and 0.1 μM across cells expressing these fusions. Cells were treated for 1.5 h with tracer either alone or in the presence of 20 μM competing parental compound (i.e., control). BRET was measured upon addition of purified LgBiT and subsequent complementation with HiBiT genetically fused to a GPCR. The specificity of interactions was assessed through a decrease in BRET signal due to competitive displacement of the bound tracer. To further gauge the robustness of these interactions, the fold response over the control (i.e., BRETtracer/BRETcontrol) was calculated. We chose a 1.5-fold response, which translates to ≥7-fold signal over noise as the minimal threshold required to score an interaction as positive. […]. Below we highlight the screening results obtained for our exemplary fluorescent tracers based on Clozapine, Amitriptyline and AZD1283.
(§2) HiBiT-GPCR DNA constructs were diluted in 10 mM Tris pH 8 to a final concentration of 0.01 μg/μL, arrayed in 96-well plates and stored at −20 °C. For transfection, HEK293 cells were suspended in Opti-MEM (without phenol red) supplemented with 2% fetal bovine serum (Seradigm) and 100 units/mL penicillin–streptomycin (Gibco) at a final concentration of 220,000 cells/mL and dispensed into white 96-well plates at 90 μL/well. Subsequent transfections and screens were carried using an Agilent Bravo Automated Liquid Handling Platform. First, the 96-well HiBiT DNA arrays were diluted 25-fold in Opti-MEM (without serum or phenol red) to a final concentration of 0.0004 μg/μL and 20 μL of the diluted DNAs were transferred into new 96-well plates. Next, promoterless carrier DNA (1 μg/μL) was diluted 25-fold (0.04 μg/μL) and then dispensed into the diluted arrays at 20 μL/well. Following brief mixing, Viafect transfection reagent (Promega) diluted 16-fold into Opti-MEM was dispensed into the plates at 40 μL/well. After mixing by pipetting, plates were incubated for 10 min on the pipetting station deck. The DNA-transfection reagent complexes were then added to plates containing cells. To facilitate the screen, 10 μL of DNA-transfection reagent complexes were added in duplicates to the top 4 and bottom 4 rows, resulting in two identical 48-well arrays per plate. Plates with transfected cells were incubated for 18–20 h at 37 °C/5% CO2. A screen of each tracer across the entire library using two different concentrations requires duplicate plates of transfected cells. Depending on the number of tracers being screened, transfections can be scaled up using the same ratios. The next day, for each tracer, four 20× screening solutions in tracer dilution buffer (Promega) were prepared: two duplicates at final concentration of 20 μM and two duplicates at a final concentration of 2 μM. A competing unmodified compound was added to one of each duplicate at a final concentration of 400 μM. The four resulting solutions were diluted 4-fold in Opti-MEM without serum or phenol red to generate 5× solutions (5 µM and 0.5 µM tracer +/− 100 μM competing compound). To screen the library, a BioTek MultiFlo FX liquid dispenser was used to dispense 22.5 µL of tracer solution to the top 4 rows and 22.5 µL tracer + competing compound solution to the 4 bottom rows. Plates were briefly mixed on an orbital shaker and incubated for 1.5 h at room temperature. […]

CXCR6 = target: T2, CXCR6 (Homo sapiens, UniProt O00574); assay: NanoBRET screen HiBiT-CXCR6 in HEK293
T2 construct: purchased Promega (in-house HiBiT-GPCR construct library, NanoBRET)
Protocol: as §1, §2

AVPR1B = target: T3, AVPR1B (Homo sapiens, UniProt P47901); assay: NanoBRET screen HiBiT-AVPR1B in HEK293
T3 construct: purchased Promega (in-house HiBiT-GPCR construct library, NanoBRET)
T3 sequence (P47901 1-424): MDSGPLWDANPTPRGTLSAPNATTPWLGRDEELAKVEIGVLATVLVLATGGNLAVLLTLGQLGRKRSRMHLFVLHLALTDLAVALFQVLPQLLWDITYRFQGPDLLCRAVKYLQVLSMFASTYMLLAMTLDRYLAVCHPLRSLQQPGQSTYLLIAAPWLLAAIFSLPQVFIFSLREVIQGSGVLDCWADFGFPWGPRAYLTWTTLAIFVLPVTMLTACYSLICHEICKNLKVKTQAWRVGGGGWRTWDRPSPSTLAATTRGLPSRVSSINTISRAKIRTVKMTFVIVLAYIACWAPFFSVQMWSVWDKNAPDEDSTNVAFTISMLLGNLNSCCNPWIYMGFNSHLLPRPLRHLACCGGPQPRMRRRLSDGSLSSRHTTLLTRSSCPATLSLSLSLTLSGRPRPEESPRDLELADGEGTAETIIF
Protocol: as §1, §2

T2 sequence (O00574 whole entry): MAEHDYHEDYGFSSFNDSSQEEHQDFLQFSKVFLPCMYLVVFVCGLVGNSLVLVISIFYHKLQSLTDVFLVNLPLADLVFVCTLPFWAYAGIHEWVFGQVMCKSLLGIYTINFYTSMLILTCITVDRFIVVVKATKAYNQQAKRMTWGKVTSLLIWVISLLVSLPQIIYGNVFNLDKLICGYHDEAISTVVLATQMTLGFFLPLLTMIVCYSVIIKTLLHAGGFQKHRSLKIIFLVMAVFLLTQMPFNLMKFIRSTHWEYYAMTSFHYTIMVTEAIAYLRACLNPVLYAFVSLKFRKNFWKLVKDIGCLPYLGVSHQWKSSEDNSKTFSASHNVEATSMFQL
T1 sequence (P28566 whole entry): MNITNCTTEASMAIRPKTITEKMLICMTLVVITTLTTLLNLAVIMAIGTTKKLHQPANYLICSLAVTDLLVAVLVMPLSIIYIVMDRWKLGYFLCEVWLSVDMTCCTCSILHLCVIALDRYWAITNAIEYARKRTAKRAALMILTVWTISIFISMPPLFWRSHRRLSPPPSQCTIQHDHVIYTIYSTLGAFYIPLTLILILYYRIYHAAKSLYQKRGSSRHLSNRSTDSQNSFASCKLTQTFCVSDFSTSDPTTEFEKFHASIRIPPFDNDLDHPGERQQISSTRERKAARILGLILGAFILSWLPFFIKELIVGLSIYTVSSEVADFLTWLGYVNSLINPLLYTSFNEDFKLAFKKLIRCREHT

CN(C)CCC=C1c2ccccc2CCc2ccc(C(=O)NCCNC(=O)CCOCCOCCOCCOCCNC(=O)CCc3ccc4n3[B-](F)(F)[N+]3=C(c5ccc[nH]5)C=CC3=C4)cc21 [Amitriptyline-a-2-NB590]
NanoBRET Fold Response (HTR1E; tracer at 0.1μM): 1.04
NanoBRET Fold Response (HTR1E; tracer at 1μM): 1.00
NanoBRET Fold Response (CXCR6; tracer at 0.1μM): 1.07
NanoBRET Fold Response (CXCR6; tracer at 1μM): 0.94
NanoBRET Fold Response (AVPR1B; tracer at 0.1μM): 0.94
NanoBRET Fold Response (AVPR1B; tracer at 1μM): 1.03

Cc1nc2n(c(=O)c1CCN1CCC(c3noc4cc(F)ccc34)CC1)CCCC2OC(=O)NCCOCCOCCOCCOCCNC(=O)CCc1ccc2n1[B-](F)(F)[N+]1=C(c3ccc[nH]3)C=CC1=C2 (stereo not drawn) [Risperidone-2-NB590]
NanoBRET Fold Response (HTR1E; HTR1E, tracer 0.1μM): 0.96
NanoBRET Fold Response (HTR1E; HTR1E, tracer 1μM): 1.07
NanoBRET Fold Response (CXCR6; CXCR6, tracer 0.1μM): 1.00
NanoBRET Fold Response (CXCR6; CXCR6, tracer 1μM): 1.24
NanoBRET Fold Response (AVPR1B; AVPR1B, tracer 0.1μM): 1.06
NanoBRET Fold Response (AVPR1B; AVPR1B, tracer 1μM): 0.98

COc1ccc2[nH]c(-c3ccc(CNC(=O)CCOCCOCCOCCOCCNC(=O)CCc4ccc5n4[B-](F)(F)[N+]4=C(c6ccc[nH]6)C=CC4=C5)cc3)c(CCNC(C)=O)c2n1 [AzomelatoninICO9-2-NB590]
NanoBRET Fold Response (HTR1E; 0.1μM tracer): 0.97
NanoBRET Fold Response (HTR1E; 1μM tracer): 1.18
NanoBRET Fold Response (CXCR6; 0.1μM tracer): 0.98
NanoBRET Fold Response (CXCR6; 1μM tracer): 1.16
NanoBRET Fold Response (AVPR1B; 0.1μM tracer): 1.50
NanoBRET Fold Response (AVPR1B; 1μM tracer): 0.90

COc1ccccc1N1CCN(CCCCN2C(=O)c3ccc(CNC(=O)CCOCCOCCOCCOCCNC(=O)CCc4ccc5n4[B-](F)(F)[N+]4=C(c6ccc[nH]6)C=CC4=C5)cc3C2=O)CC1 [NAN-190-2-NB590]
NanoBRET Fold Response (HTR1E; HTR1E, tracer 0.1μM): 0.97
NanoBRET Fold Response (CXCR6; CXCR6, tracer 0.1μM): 0.94
NanoBRET Fold Response (CXCR6; CXCR6, tracer 1μM): 1.02

O=C(CCc1ccc2n1[B-](F)(F)[N+]1=C(c3ccc[nH]3)C=CC1=C2)NCCOCCOCCNC(=O)OCCOCCN1CCN(C2=Nc3ccccc3Sc3ccccc32)CC1 [Quetiapine-a-2-NB590]
NanoBRET Fold Response (HTR1E; HTR1E, tracer 0.1μM): 0.96
NanoBRET Fold Response (HTR1E; HTR1E, tracer 1μM): 0.99
NanoBRET Fold Response (CXCR6; CXCR6, tracer 0.1μM): 0.98
NanoBRET Fold Response (CXCR6; CXCR6, tracer 1μM): 1.12
NanoBRET Fold Response (AVPR1B; AVPR1B, tracer 0.1μM): 0.86
NanoBRET Fold Response (AVPR1B; AVPR1B, tracer 1μM): 1.01

O=C(CCOCCOCCOCCOCCNC(=O)CCc1ccc2n1[B-](F)(F)[N+]1=C(c3ccc[nH]3)C=CC1=C2)NCCCN1CCN(C2=Nc3cc(Cl)ccc3Nc3ccccc32)CC1 [Clozapine-a-2-NB590]
NanoBRET Fold Response (HTR1E; HTR1E, 0.1μM tracer): 1.01
NanoBRET Fold Response (HTR1E; HTR1E, 1μM tracer): 0.96
NanoBRET Fold Response (CXCR6; CXCR6, 0.1μM tracer): 0.98
NanoBRET Fold Response (CXCR6; CXCR6, 1μM tracer): 1.08
NanoBRET Fold Response (AVPR1B; AVPR1B, 0.1μM tracer): 0.98
NanoBRET Fold Response (AVPR1B; AVPR1B, 1μM tracer): 0.97

N#CN=C(NCCCOc1cccc(CN2CCCCC2)c1)NCCNC(=O)CCOCCOCCOCCOCCNC(=O)CCc1ccc2n1[B-](F)(F)[N+]1=C(c3ccc[nH]3)C=CC1=C2 [Aminopotentidine-2-NB590]
NanoBRET Fold Response (HTR1E; HTR1E, tracer 0.1μM): 0.93
NanoBRET Fold Response (HTR1E; HTR1E, tracer 1μM): 1.06
NanoBRET Fold Response (CXCR6; CXCR6, tracer 0.1μM): 1.06
NanoBRET Fold Response (CXCR6; CXCR6, tracer 1μM): 1.03
NanoBRET Fold Response (AVPR1B; AVPR1B, tracer 0.1μM): 1.09
NanoBRET Fold Response (AVPR1B; AVPR1B, tracer 1μM): 1.04

O=C(CCc1ccc2n1[B-](F)(F)[N+]1=C(c3ccc[nH]3)C=CC1=C2)NCc1ccc(C(=O)NCCOCCOCCNCC(O)COc2cccc3ccccc23)cc1 (stereo not drawn) [Propranolol-3-NB590]
NanoBRET Fold Response (HTR1E; HTR1E, 0.1μM): 1.00
NanoBRET Fold Response (HTR1E; HTR1E, 1μM): 0.98
NanoBRET Fold Response (CXCR6; CXCR6, 0.1μM): 0.99
NanoBRET Fold Response (CXCR6; CXCR6, 1μM): 0.88
NanoBRET Fold Response (AVPR1B; AVPR1B, 0.1μM): 0.90
NanoBRET Fold Response (AVPR1B; AVPR1B, 1μM): 1.04
